Experiments:
[1] = Serum stability of nanoparticle formulations, t(½) in human serum at 37 C; type: in vitro ADME; details: Table 10, nanoparticles Ionizable compound/DOPE/Cholesterol/DMPE-PEG 50/28/21/1 mol %
Protocol: (§1) Example 39: Formulations were Prepared for Encapsulating a Small Interfering Nucleic Acid Agents (siRNA)
(§2) Lipid nanoparticle formulations were prepared with the following compositions: […]
(§3) (Ionizable compound/DOPE/Cholesterol/DMPE-PEG) mol % • 50/28/21/1.
The formulations were capable of encapsulating the siRNA, and retaining stability in human serum. […]

[2] = pKa (Table 9, lipid formulations for siRNA); type: physicochemical; details: only or first value of the cell
GFP = test: EC50 of nanoparticle formulations, GFP siRNA; type: cell-based; details: nanoparticles Ionizable compound/DOPE/Cholesterol/DMPE-PEG 50/28/21/1 mol %
Protocol: as §1, §2, §3
The formulations were capable of encapsulating the siRNA, and retaining stability in human serum.

[3] = Encapsulation efficiency for siRNA of lipid (nanoparticle) formulations; type: physicochemical; details: Table 8: nanoparticles Ionizable compound/DOPE/DOPC/Cholesterol/DMPE-PEG 50/28/0/21/1, 50/28/0/20/2 or 26/21/21/31/1 mol %
Protocol: (§4) Example 38: Formulations were Prepared for Encapsulating a Small Interfering Nucleic Acid Agents (siRNA)
as §2

[4] = Particle size Z (ave) of siRNA lipid nanoparticle formulations; type: physicochemical; details: Table 8: nanoparticles Ionizable compound/DOPE/DOPC/Cholesterol/DMPE-PEG 50/28/0/21/1, 50/28/0/20/2 or 26/21/21/31/1 mol %
Protocol: as §4, §2

SMILES	t(½) (hr) human serum 37 C. [1] [h]	pKa [2]	EC50 (GFP) [nM]	EE* (%) Encapsulation efficiency for siRNA [3] [%]	Z (ave) nm [4] [nm]
CCCCC/C=C\C/C=C\CCCCCCCC(=O)OCCN(CCOC(=O)CCCCCCC/C=C\C/C=C\CCCCC)C(=O)CN1CCN(CCO)CC1 [Compound AB, ((2-(4-(2-hydroxyethyl)piperazin-1-yl)acetyl)azanediyl)bis(ethane-2,1-diyl) (9Z,9′Z,12Z,12′Z)-bis(octadeca-9,12-dienoate)]	>50	6.9	7.4		
CCCCC/C=C\C/C=C\CCCCCCCCOC(=O)[C@H](CNC(=O)C[N+](C)(C)C)NC(=O)CCCCCCC/C=C\C/C=C\CCCCC [Compound C24, N,N,N-trimethyl-2-(((S)-3-(((9Z,12Z)-octadeca-9,12-dien-1-yl)oxy)-2-((9Z,12Z)-octadeca-9,12-dienamido)-3-oxopropyl)amino)-2-oxoethan-1l-aminium]	>50		92	98	127
CCCCCCCCCCCCCC(=O)OCCN(CCOC(=O)CCCCCCCCCCCCC)C(=O)CCCC(=O)O [Compound B8]	>50	4.3			
CCCCC/C=C\C/C=C\CCCCCCCCOC(=O)CC(CC(=O)OCCCCCCCC/C=C\C/C=C\CCCCC)NC(=O)SCCN(C)C [Compound DD, di((9Z,12Z)-octadeca-9,12-dien-1-yl) 3-((((2-(dimethylamino)ethyl)thio)carbonyl)amino)pentanedioate]	>50	5.1		92	137
CCCCCCCCCCCCCC(=O)OCCN(CCOC(=O)CCCCCCCCCCCCC)C(=O)CN1CC(CO)C1 [Compound A9, ((2-(3-(hydroxymethyl)azetidin-1-yl)acetyl)azanediyl)bis(ethane-2,1-diyl) ditetradecanoate]		7.4	31	95	97
CCCCC/C=C\C/C=C\CCCCCCCCOC(=O)[C@@H]1C[C@@H](NC(=O)CCN(C)C)CN1C(=O)CCCCCCC/C=C\C/C=C\CCCCC [Compound E37, (9Z,12Z)-octadeca-9,12-dien-1-yl (2S,4R)-4-(3-(dimethylamino)propanamido)-1-((9Z,12Z)-octadeca-9,12-dienoyl)pyrrolidine-2-carboxylate]		9.2			
CCCCC/C=C\C/C=C\CCCCCCCC(=O)OCCN(CCOC(=O)CCCCCCC/C=C\C/C=C\CCCCC)C(=O)OCCN(C)C [Compound A7, (((2-(dimethylamino)ethoxy)carbonyl)azanediyl)bis(ethane-2,1-diyl) (9Z,9′Z,12Z,12′Z)-bis(octadeca-9,12-dienoate)]	>50	7.6	35		
CCCCC/C=C\C/C=C\CCCCCCCCOC(=O)CC(CC(=O)OCCCCCCCC/C=C\C/C=C\CCCCC)NC(=O)CN1CCN(CCO)CC1 [Compound CA, di((9Z,12Z)-octadeca-9,12-dien-1-yl) 3-(2-(4-(2-hydroxyethyl)piperazin-1-yl)acetamido)pentanedioate]			< 50		
CCCC/C=C\C/C=C\CCCCCCCCOC(=O)CC(CC(=O)OCCCCCCCC/C=C\C/C=C\CCCCC)NC(=O)C[N+](C)(C)C (centres unmarked) [Compound C2, 2-((1-(((9Z,12Z)-heptadeca-9,12-dien-1-yl)oxy)-5-(((9Z,12Z)-octadeca-9,12-dien-1-yl)oxy)-1,5-dioxopentan-3-yl)amino)-N,N,N-trimethyl-2-oxoethan-1-aminium]			33	95	111
CCCCC/C=C\C/C=C\CCCCCCCC(=O)OCCN(CCCN(C)C)C(=O)CCCCCCC/C=C\C/C=C\CCCCC [Compound F5, 2-((9Z,12Z)—N-(3-(dimethylamino)propyl)octadeca-9,12-dienamido)ethyl (9Z,12Z)-octadeca-9,12-dienoate]		9.4	33		
CCCCC/C=C\C/C=C\CCCCCCCC(=O)OCCN(CCOC(=O)CCCCCCC/C=C\C/C=C\CCCCC)C(=O)CN1C[C@@H](O)[C@@H](O)C1 [Compound A6, ((2-((3S,4R)-3,4-dihydroxypyrrolidin-1-yl)acetyl)azanediyl)bis(ethane-2,1-diyl) (9Z,9′Z,12Z,12′Z)-bis(octadeca-9,12-dienoate)]	>50	6.3	11	96	121
CCCCC/C=C\C/C=C\CCCCCCCCOC(=O)CC(CC(=O)OCCCCCCCC/C=C\C/C=C\CCCCC)NC(=O)OCCN(C)C [Compound E4, di((9Z,12Z)-octadeca-9,12-dien-1-yl) 3-(((2-(dimethylamino)ethoxy)carbonyl)amino)pentanedioate]	>50		2.7	94	131
CCCCC/C=C\C/C=C\CCCCCCCC(=O)OCCN(CCOC(=O)CCCCCCC/C=C\C/C=C\CCCCC)C(=O)CN1CCN(CCCO)CC1 [Compound AA]		7.4	22	90	120
CCCCCCCCCCCCCC(=O)OCCN(CCOC(=O)CCCCCCCCCCCCC)C(=O)CN1C[C@H](O)[C@@H](O)C1 [Compound A4, ((2-((3S,4S)-3,4-dihydroxypyrrolidin-1-yl)acetyl)azanediyl)bis(ethane-2,1-diyl) ditetradecanoate]		5.8			
CCCCC/C=C\C/C=C\CCCCCCCCOC(=O)[C@@H]1C[C@@H](NC(=O)CCC[N+](C)(C)C)CN1C(=O)CCCCCCC/C=C\C/C=C\CCCCC [Compound E39, N,N,N-trimethyl-4-(((3R,5S)-5-((((9Z,12Z)-octadeca-9,12-dien-1-yl)oxy)carbonyl)-1-((9Z,12Z)-octadeca-9,12-dienoyl)pyrrolidin-3-yl)amino)-4-oxobutan-1-aminium]	>50				
CCCC/C=C\C/C=C\CCCCCCCCOC(=O)CC(CC(=O)OCCCCCCCC/C=C\C/C=C\CCCCC)NC(=O)CN(C)C (centres unmarked) [Compound C3, 1-((9Z,12Z)-heptadeca-9,12-dien-1-yl) 5-((9Z,12Z)-octadeca-9,12-dien-1-yl) 3-(2-(dimethylamino)acetamido)pentanedioate]		6.9			
CCCCC/C=C\C/C=C\CCCCCCCCOC(=O)[C@H](CNC(=O)CN(C)C)NC(=O)CCCCCCC/C=C\C/C=C\CCCCC [Compound C25, (9Z,12Z)-octadeca-9,12-dien-1-yl (S)-3-(2-(dimethylamino)acetamido)-2-((9Z,12Z)-octadeca-9,12-dienamido)propanoate]	>50				
CCCCC/C=C\C/C=C\CCCCCCCCOC(=O)[C@@H]1C[C@@H](NC(=O)CCCN(C)C)CN1C(=O)CCCCCCC/C=C\C/C=C\CCCCC [Compound E38, (9Z,12Z)-octadeca-9,12-dien-1-yl (2S,4R)-4-(4-(dimethylamino)butanamido)-1-((9Z,12Z)-octadeca-9,12-dienoyl)pyrrolidine-2-carboxylate]	>50				
CCCCC/C=C\C/C=C\CCCCCCCC(=O)OCCN(CCCCN(C)C)C(=O)CCCCCCC/C=C\C/C=C\CCCCC [Compound F6, 2-((9Z,12Z)—N-(4-(dimethylamino)butyl)octadeca-9,12-dienamido)ethyl (9Z,12Z)-octadeca-9,12-dienoate]		9.3			
CCCCC/C=C\C/C=C\CCCCCCCC(=O)OCCN(CCOC(=O)CCCCCCC/C=C\C/C=C\CCCCC)C(=O)CN1C[C@@H](O)[C@H](O)C1 [Compound A5, ((2-((3R,4R)-3,4-dihydroxypyrrolidin-1-yl)acetyl)azanediyl)bis(ethane-2,1-diyl) (9Z,9′Z,12Z,12′Z)-bis(octadeca-9,12-dienoate)]	>50	6.1	6.9		
CCCCC/C=C\C/C=C\CCCCCCCC(=O)OCCN(CCOC(=O)CCCCCCC/C=C\C/C=C\CCCCC)C(=O)OCC[N+](C)(C)C [Compound A8, 2-((bis(2-(((9Z,12Z)-octadeca-9,12-dienoyl)oxy)ethyl)carbamoyl)oxy)-N,N,N-trimethylethan-1-aminium]	>50				

From patent publication US12319643B2, “Ionizable compounds and compositions and uses thereof” (Nitto Denko Corporation, priority 2015, dated 2025)
